According to patent US12428369B2, “Crystal form of aromatic vinyl derivatives, and preparation method therefor and use thereof” (GUANGZHOU MAXINOVEL PHARMACEUTICALS CO., LTD., priority 2020, dated 2025):
Converted amounts (≈) assume the structure as drawn.

Tests used:
Type in all cases: physicochemical
[1] = Solid-state stability: appearance and crystal form (XRPD)
Experimental: (§1) The samples of crystal forms A, B, and C were weighed and added to a 20 mL colorless transparent glass bottle, respectively, and the sample bottles were respectively placed under the corresponding influencing factors and acceleration conditions (the sample bottles under humidity conditions were sealed with tin foil and placed with holes, and the other samples were covered tightly and placed), taken out after being placed for 1 week and 2 weeks respectively, and the sample content and related substances under various conditions were detected by HPLC; according to the same method as above, samples were respectively weighed and placed under a corresponding influencing factor and accelerated condition, and were taken out after being placed for 2 weeks for observing the appearance and XRPD characterization of each sample, and the physical stability of each crystal form was examined, and the test methods are detailed in table 14 and table 15; at the same time, 2 samples of the crystal forms A, B, and C of the compound as shown in formula I were respectively weighed accurately into 20 mL colorless transparent glass bottles and covered tightly, placed in a −20° C. refrigerator, and taken out as a standard for HPLC analysis at 2 weeks, and the test results are detailed in table 16 and table 17.

[2] = Dynamic vapor sorption (DVS) analysis; conditions: 25° C.
Experimental: The hygroscopic characteristics of the sample were tested when the humidity changed from 0% RH to 95% RH, and the dehumidifying characteristics of the sample were tested when the humidity changed from 95% RH to 0% RH. The humidity change in each step size was 5% RH, the equilibrium standard was that the weight change rate within 10 min was less than 0.01%/min, and the longest equilibrium time was 2 hours.
The hygroscopic characteristics of the sample were tested when the humidity changed from 0% RH to 95% RH, and the dehumidifying characteristics of the sample were tested when the humidity changed from 95% RH to 0% RH. The humidity change in each step size was 5% RH, the equilibrium standard was that the weight change rate within 5 min was less than 0.01%/min, and the longest equilibrium time was 2 hours.

[3] = Crystal form conversion on heating; conditions: heated to 200° C.
Experimental: 100 mg of the compound as shown in formula I sample was weighed and added to a bottle, then 20 times the volume of methanol was added to the bottle, and the mixture was magnetic stirred and slurried for 14 days at room temperature.
100 mg of the compound as shown in formula I sample was weighed and added to a glass bottle, and 100 times the volume of ethyl acetate (EA) and 20 times the volume of methanol (MeOH) were added to the bottle, and the sample was placed on a magnetic heating stirrer. The mixture was magnetic stirred to fully dissolve at a water bath of 50° C., filtered and the filtrate was slowly cooled to room temperature at a rate of 6° C./h, overnight, filtered under reduced pressure, and the solid was dried at 70° C. for 4 hours.
100 mg of the compound as shown in formula I sample was weighed and added to a bottle, then 30 times the volume of acetonitrile (ACN) (sample mass (g)×volume multiples) was added to the bottle, and the mixture was magnetic stirred and slurried for 2 days at room temperature, filtered under reduced pressure, and the solid was collected, and dried at 40° C. for 4 hours. The solid after drying was characterized, and the crystal form was defined as a crystal form VIII, and the XRPD pattern of the crystal form VIII is as shown in FIG. 20. […]

[4] = Solid-state stability: content and related substances by HPLC
Experimental: as §1

[5] = Equilibrium solubility and dissolution rate in water, SGF, FaSSIF, FeSSIF; conditions: 37° C.
Experimental: To further study whether the equilibrium solubility and dissolution rate of crystal forms A, B and C are different in pure water and physiological related media in vivo, the equilibrium solubility and dissolution rate of […] crystal forms in water, simulated gastric fluid (SGF), fasted-state simulated intestinal fluid (FaSSIF) and fed state simulated intestinal fluid (FeSSIF) were tested respectively.

[6] = Acceleration (40° C./75% RH), 2 weeks
[7] = High humidity (92.5% RH), 2 weeks
[8] = High temperature (60° C.), 2 weeks
[9] = Illumination (4500 Lux), 2 weeks
[10] = Acceleration (40° C./75% RH), 1 week
[11] = High humidity (92.5% RH), 1 week
[12] = High temperature (60° C.), 1 week
[13] = illumination (4500 LuX), 1 week
[14] = illumination (4500 LuX), 2 weeks

Q: Which results are given for `Cc1c(/C=C/c2cc(CN[C@@](C)(CO)C(=O)O)ccc2C(F)(F)F)cccc1-c1ccccc1` [Crystal form C]?
A: Appearance [1, 6]: Off-white; Crystal form (XRPD) after storage [1, 6]: Crystal form C; Appearance ([1]; Control, −20° C., 2 weeks): Off-white; Crystal form (XRPD) after storage ([1]; Control, −20° C., 2 weeks, listed as Crystal form C-Control): Crystal form C; Appearance [1, 7]: Off-white; Crystal form (XRPD) after storage [1, 7]: Crystal form C; Appearance [1, 8]: Off-white; Crystal form (XRPD) after storage [1, 8]: Crystal form C; Appearance [1, 9]: Off-white; Crystal form (XRPD) after storage [1, 9]: Crystal form C; physical stability ([1]; four storage conditions, 2 weeks (conclusion)): good; Appearance ([1]; high temperature, high humidity, illumination and acceleration, 2 weeks (conclusion)): off-white; hygroscopicity ([2]; assessment in words): hygroscopic; weight gain ([2]; from 0% RH to 95% RH): 4.767%; crystal form after heating [3]: converted into the crystal form A; Content [4, 10]: 100.06%; Total related substances [4, 10]: 0.00%; Content [4, 6]: 99.89%; Total related substances [4, 6]: 0.00%; Content ([4]; Control, −20° C., 2 weeks): 100.00%; Total related substances ([4]; Control, −20° C., 2 weeks): 0.00%; Content [4, 11]: 101.55%; Total related substances [4, 11]: 0.00%; Content [4, 7]: 100.59%; Total related substances [4, 7]: 0.00%; Content [4, 12]: 98.41%; Total related substances [4, 12]: 0.00%; Content [4, 8]: 100.18%; Total related substances [4, 8]: 0.00%; Content [4, 13]: 102.18%; Total related substances [4, 13]: 0.52%; Content [4, 14]: 98.64%; Total related substances [4, 14]: 1.56%; Solubility ([5]; FaSSIF (rows r12-r14), 0.5 hours, listed as C): 9.1 µg/mL (≈ 19.4 µM); Solubility ([5]; FaSSIF (rows r12-r14), 2 hours, listed as C): 2.2 µg/mL (≈ 4.69 µM); Solubility ([5]; FaSSIF (rows r12-r14), 24 hours, listed as C): 4.5 µg/mL (≈ 9.58 µM); Solubility ([5]; FaSSIF as printed (second set, rows r15-r17), 0.5 hours, listed as C): 181.7 µg/mL (≈ 387 µM); Solubility ([5]; FaSSIF as printed (second set, rows r15-r17), 2 hours, listed as C): 174.3 µg/mL (≈ 371 µM); Solubility ([5]; FaSSIF as printed (second set, rows r15-r17), 24 hours, listed as C): 166.6 µg/mL (≈ 355 µM); Solubility ([5]; SGF, 0.5 hours): 0.3 µg/mL (≈ 0.639 µM); Solubility ([5]; SGF, 2 hours): 0.2 µg/mL (≈ 0.426 µM); Solubility ([5]; SGF, 24 hours): 0.5 µg/mL (≈ 1.06 µM); Solubility ([5]; Water, 0.5 hours): 1.7 µg/mL (≈ 3.62 µM); Solubility ([5]; Water, 2 hours): 6.5 µg/mL (≈ 13.8 µM); Solubility ([5]; Water, 24 hours): 1.8 µg/mL (≈ 3.83 µM)
